Measured values published in article PMC12736255, “Reinvestigating Pyrrol-2-One-Based Compounds: From Antimicrobial Agents to Promising Antitumor Candidates” (Pharmaceuticals, 2025).

Tests used:
[1] = tested on: M14; assay: NCI-60 single-dose screen; assay type: cell-based; settings: Homo sapiens; M14, 10^–5 M; read-out: GI (%)
Method in brief: (§1)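 The National Cancer Institute screened these compounds at a fixed 10^−5 M in its sixty-line human tumor cell panel.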

[2] = tested on: NCI-H460; assay: NCI-60 single-dose screen; assay type: cell-based; settings: Homo sapiens; NCI-H460, 10^–5 M; read-out: GI (%)
Method in brief: as §1

[3] = tested on: RPMI-8226; assay: NCI-60 single-dose screen; assay type: cell-based; settings: Homo sapiens; RPMI-8226, 10^–5 M; read-out: GI (%)
Method in brief: as §1

[4] = tested on: HT-29; assay: NCI-60 single-dose screen; assay type: cell-based; settings: Homo sapiens; HT-29, 10^–5 M; read-out: GI (%)
Method in brief: as §1

[5] = tested on: SF-268; assay: NCI-60 single-dose screen; assay type: cell-based; settings: Homo sapiens; SF-268, 10^–5 M; read-out: GI (%)
Method in brief: as §1

[6] = tested on: ACHN; assay: NCI-60 single-dose screen; assay type: cell-based; settings: Homo sapiens, 10^–5 M, read-out: GI (%)
Method in brief: as §1

[7] = tested on: HS 578T; assay: NCI-60 single-dose screen; assay type: cell-based; settings: Homo sapiens, 10^–5 M, read-out: GI (%)
Method in brief: as §1

[8] = tested on: OVCAR-4; assay: NCI-60 single-dose screen; assay type: cell-based; settings: Homo sapiens; OVCAR-4, 10^–5 M; read-out: GI (%)
Method in brief: as §1

[9] = tested on: MOLT-4; assay: NCI-60 single-dose screen; assay type: cell-based; settings: Homo sapiens; MOLT-4, 10^–5 M; read-out: GI (%)
Method in brief: as §1

[10] = tested on: MALME-3M; assay: NCI-60 single-dose screen; assay type: cell-based; settings: Homo sapiens, 10^–5 M, read-out: GI (%)
Method in brief: as §1

[11] = tested on: MDA-MB-435; assay: NCI-60 single-dose screen; assay type: cell-based; settings: Homo sapiens; MDA-MB-435, 10^–5 M; read-out: GI (%)
Method in brief: as §1

[12] = tested on: SR; assay: NCI-60 single-dose screen; assay type: cell-based; settings: Homo sapiens, 10^–5 M, read-out: GI (%)
Method in brief: as §1

[13] = tested on: TK-10; assay: NCI-60 single-dose screen; assay type: cell-based; settings: Homo sapiens; TK-10, 10^–5 M; read-out: GI (%)
Method in brief: as §1

[14] = tested on: NCI-H522; assay: NCI-60 single-dose screen; assay type: cell-based; settings: Homo sapiens; NCI-H522, 10^–5 M; read-out: GI (%)
Method in brief: as §1

[15] = tested on: T-47D; assay: NCI-60 single-dose screen; assay type: cell-based; settings: Homo sapiens, T47D, 10^–5 M, read-out: GI (%)
Method in brief: as §1

[16] = tested on: DU-145; assay: NCI-60 single-dose screen; assay type: cell-based; settings: Homo sapiens; DU-145, 10^–5 M; read-out: GI (%)
Method in brief: as §1

[17] = tested on: HOP-62; assay: NCI-60 single-dose screen; assay type: cell-based, human; settings: HOP-62, 10^–5 M
Method in brief: as §1

[18] = tested on: U251; assay: NCI-60 single-dose screen; assay type: cell-based, human; settings: U251, 10^–5 M
Method in brief: as §1

[19] = tested on: MDA-MB-468; assay: NCI-60 single-dose screen; assay type: cell-based, human; settings: MDA-MB-468, 10^–5 M
Method in brief: as §1

[20] = tested on: UO-31; assay: NCI-60 single-dose screen; assay type: cell-based, human; settings: UO-31, 10^–5 M
Method in brief: as §1

[21] = tested on: SF-295; assay: NCI-60 single-dose screen; assay type: cell-based, human; settings: SF-295, 10^–5 M
Method in brief: as §1

[22] = tested on: BT-549; assay: NCI-60 single-dose screen; assay type: cell-based, human; settings: BT-549, 10^–5 M
Method in brief: as §1

[23] = tested on: HOP-92; assay: NCI-60 5-dose screen; assay type: cell-based, human
[24] = tested on: A498; assay: NCI-60 5-dose screen; assay type: cell-based, human
[25] = tested on: NCI-H226; assay: NCI-60 5-dose screen; assay type: cell-based, human
[26] = tested on: HT29; assay: NCI-60 5-dose screen; assay type: cell-based, human
[27] = tested on: PC-3; assay: NCI-60 5-dose screen; assay type: cell-based, human
[28] = tested on: SF-268; assay: NCI-60 5-dose screen; assay type: cell-based, human
[29] = tested on: RXF 393; assay: NCI-60 5-dose screen; assay type: cell-based, human
[30] = tested on: SW-620; assay: NCI-60 5-dose screen; assay type: cell-based, human
[31] = tested on: MOLT-4; assay: NCI-60 5-dose screen; assay type: cell-based, human
[32] = tested on: MDA-MB-231/ATCC; assay: NCI-60 5-dose screen; assay type: cell-based, human
[33] = tested on: RPMI-8226; assay: NCI-60 5-dose screen; assay type: cell-based, human
[34] = tested on: U251; assay: NCI-60 5-dose screen; assay type: cell-based, human
[35] = tested on: IGROV1; assay: NCI-60 5-dose screen; assay type: cell-based, human
[36] = tested on: OVCAR-4; assay: NCI-60 5-dose screen; assay type: cell-based, human
[37] = Homo sapiens, read-out: LC50 (the source's name)

COc1ccc(C2C=C(Nc3ccc(I)cc3)C(=O)N2c2ccc(I)cc2)cc1OC (centres unmarked) [3j]
inhibition at 10 µM [1]: 0%
inhibition at 10 µM [2]: 0%
inhibition at 10 µM [3]: 7%
inhibition at 10 µM [4]: 0%
inhibition at 10 µM [5]: 3%
inhibition at 10 µM [6]: 0%
inhibition at 10 µM [7]: 0%
inhibition at 10 µM [8]: 0%
inhibition at 10 µM [9]: 0%
inhibition at 10 µM [10]: 0%
inhibition at 10 µM [11]: 0%
inhibition at 10 µM [12]: 0%
inhibition at 10 µM [13]: 0%
inhibition at 10 µM [14]: 0%
inhibition at 10 µM [15]: 6%
inhibition at 10 µM [16]: 0%
GI (%) [17]: 0%
GI (%) [18]: 0%
GI (%) [19]: 22%
GI (%) [20]: 0%
GI (%) [21]: 0%
GI (%) [22]: 0%

N#Cc1ccc(C2C=C(Nc3ccc(I)cc3)C(=O)N2c2ccc(I)cc2)cc1 (centres unmarked) [3l]
TGI [23]: 4.89 µM
GI50 ([23]; Homo sapiens): 1.46 µM
CC50 [23, 37]: > 100 µM
TGI [24]: >100 µM
GI50 ([24]; Homo sapiens): 2.99 µM
CC50 [24, 37]: > 100 µM
TGI [25]: >100 µM
GI50 ([25]; Homo sapiens): 4.42 µM
CC50 [25, 37]: > 100 µM
TGI [26]: >100 µM
GI50 ([26]; Homo sapiens, HT-29): 9.43 µM
CC50 ([26]; Homo sapiens, HT-29, read-out: LC50 (the source's name)): > 100 µM
TGI [27]: >100 µM
GI50 ([27]; Homo sapiens): 2.4 µM
CC50 [27, 37]: > 100 µM
TGI [28]: >100 µM
GI50 ([28]; Homo sapiens): 4.69 µM
CC50 [28, 37]: > 100 µM
inhibition at 10 µM [1]: 63%
inhibition at 10 µM [2]: 40%
inhibition at 10 µM [3]: 83%
inhibition at 10 µM [4]: 40%
inhibition at 10 µM [5]: 93%
inhibition at 10 µM [6]: 100%
inhibition at 10 µM [7]: 100%
inhibition at 10 µM [8]: 100%
inhibition at 10 µM [9]: 78%
inhibition at 10 µM [10]: 46%
inhibition at 10 µM [11]: 19%
inhibition at 10 µM [12]: 87%
inhibition at 10 µM [13]: 99%
inhibition at 10 µM [14]: 32%
inhibition at 10 µM [15]: 59%
inhibition at 10 µM [16]: 37%
TGI [29]: >100 µM
GI50 ([29]; Homo sapiens): 3.72 µM
CC50 [29, 37]: > 100 µM
TGI [30]: >100 µM
GI50 ([30]; Homo sapiens): 5.91 µM
CC50 [30, 37]: > 100 µM
TGI [31]: >100 µM
GI50 ([31]; Homo sapiens): 2.11 µM
CC50 [31, 37]: > 100 µM
TGI [32]: 9.63 µM
GI50 ([32]; Homo sapiens): 2.5 µM
CC50 [32, 37]: > 100 µM
TGI [33]: >100 µM
GI50 ([33]; Homo sapiens): 3.07 µM
CC50 [33, 37]: > 100 µM
TGI [34]: >100 µM
GI50 ([34]; Homo sapiens, U-251): 4.17 µM
LC50 (50% lethal concentration) ([34]; Homo sapiens, U-251): > 100 µM
TGI [35]: >100 µM
GI50 ([35]; Homo sapiens, IGROV-1): 8.67 µM
CC50 ([35]; Homo sapiens, IGROV-1, read-out: LC50 (the source's name)): > 100 µM
TGI [36]: 1.69 µM
GI50 ([36]; Homo sapiens): 0.422 µM
CC50 [36, 37]: 4.82 µM
